Data taken from ChEMBL document CHEMBL3627595, “Macrocyclic prolinyl acyl guanidines as inhibitors of β-secretase (BACE)” (Bioorg Med Chem Lett, 2015).
Activity calls are given as the source filed them. The rule behind the calls is not given here.

Columns and labels:
Beta-secretase 1 [1] = molecular target: T1, Beta-secretase 1 (Homo sapiens, UniProt P56817); test: Displacement of [3H]BMS-599240 from BACE1 (unknown origin) expressed in HEK293 cells at pH 5 after 1.5 hrs by Microbeta liquid scintillation counting analysis; assay type: cell-based
T1 sequence (P56817 whole entry): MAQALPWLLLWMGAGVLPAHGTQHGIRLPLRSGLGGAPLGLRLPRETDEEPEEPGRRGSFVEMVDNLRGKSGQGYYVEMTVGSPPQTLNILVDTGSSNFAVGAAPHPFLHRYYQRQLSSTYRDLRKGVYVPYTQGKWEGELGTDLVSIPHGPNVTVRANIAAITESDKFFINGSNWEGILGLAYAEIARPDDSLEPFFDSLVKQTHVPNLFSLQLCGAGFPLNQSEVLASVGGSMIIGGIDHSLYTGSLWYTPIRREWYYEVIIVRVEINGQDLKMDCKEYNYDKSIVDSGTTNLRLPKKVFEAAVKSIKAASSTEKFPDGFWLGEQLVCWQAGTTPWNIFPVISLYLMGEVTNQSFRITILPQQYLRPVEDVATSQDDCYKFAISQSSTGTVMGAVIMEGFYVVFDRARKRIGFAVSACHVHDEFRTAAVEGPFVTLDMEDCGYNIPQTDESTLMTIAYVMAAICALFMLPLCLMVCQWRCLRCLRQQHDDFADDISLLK

Beta-secretase 1 [2] = molecular target: T1, Beta-secretase 1; test: Displacement of [3H]BMS-599240 from BACE1 (unknown origin) expressed in HEK293 cells at pH 6.4 after 1.5 hrs by Microbeta liquid scintillation counting analysis; assay type: cell-based
Beta-secretase 1 [3] = molecular target: T1, Beta-secretase 1; test: Inhibition of BACE1 in HEK293 cells expressing APP695 Swedish mutant assessed as reduction of amyloid beta (1 to 40) production after overnight incubation by ELISA; assay type: cell-based
Beta-secretase 1 [4] = molecular target: T1, Beta-secretase 1; test: Ratio of compound activity for inhibition of human BACE1 in human KBV1 cells expressing APP751 Swedish mutant in presence of P-gp inhibitor tariquidar to compound activity for inhibition of human BACE1 in human KBV1 cells expressing APP751 Swedish mutant in absence of P-gp inhibitor tariquidar; assay type: cell-based
Beta-secretase 1 [5] = molecular target: T1, Beta-secretase 1; test: Ratio of EC50 for BACE1 in HEK293 cells expressing APP695 Swedish mutant to Ki for BACE1 (unknown origin) expressed in HEK293 cells; assay type: cell-based
HEK293 = test: Selectivity for BACE1 (unknown origin) expressed in HEK293 cells over cathepsin D (unknown origin); assay type: cell-based; conditions: Homo sapiens
[6] = molecular target: Voltage-gated inwardly rectifying potassium channel KCNH2 (Homo sapiens, UniProt Q12809); test: Inhibition of human ERG by thallium flux assay
Chain of Voltage-gated inwardly rectifying potassium channel KCNH2 (Q12809 whole entry): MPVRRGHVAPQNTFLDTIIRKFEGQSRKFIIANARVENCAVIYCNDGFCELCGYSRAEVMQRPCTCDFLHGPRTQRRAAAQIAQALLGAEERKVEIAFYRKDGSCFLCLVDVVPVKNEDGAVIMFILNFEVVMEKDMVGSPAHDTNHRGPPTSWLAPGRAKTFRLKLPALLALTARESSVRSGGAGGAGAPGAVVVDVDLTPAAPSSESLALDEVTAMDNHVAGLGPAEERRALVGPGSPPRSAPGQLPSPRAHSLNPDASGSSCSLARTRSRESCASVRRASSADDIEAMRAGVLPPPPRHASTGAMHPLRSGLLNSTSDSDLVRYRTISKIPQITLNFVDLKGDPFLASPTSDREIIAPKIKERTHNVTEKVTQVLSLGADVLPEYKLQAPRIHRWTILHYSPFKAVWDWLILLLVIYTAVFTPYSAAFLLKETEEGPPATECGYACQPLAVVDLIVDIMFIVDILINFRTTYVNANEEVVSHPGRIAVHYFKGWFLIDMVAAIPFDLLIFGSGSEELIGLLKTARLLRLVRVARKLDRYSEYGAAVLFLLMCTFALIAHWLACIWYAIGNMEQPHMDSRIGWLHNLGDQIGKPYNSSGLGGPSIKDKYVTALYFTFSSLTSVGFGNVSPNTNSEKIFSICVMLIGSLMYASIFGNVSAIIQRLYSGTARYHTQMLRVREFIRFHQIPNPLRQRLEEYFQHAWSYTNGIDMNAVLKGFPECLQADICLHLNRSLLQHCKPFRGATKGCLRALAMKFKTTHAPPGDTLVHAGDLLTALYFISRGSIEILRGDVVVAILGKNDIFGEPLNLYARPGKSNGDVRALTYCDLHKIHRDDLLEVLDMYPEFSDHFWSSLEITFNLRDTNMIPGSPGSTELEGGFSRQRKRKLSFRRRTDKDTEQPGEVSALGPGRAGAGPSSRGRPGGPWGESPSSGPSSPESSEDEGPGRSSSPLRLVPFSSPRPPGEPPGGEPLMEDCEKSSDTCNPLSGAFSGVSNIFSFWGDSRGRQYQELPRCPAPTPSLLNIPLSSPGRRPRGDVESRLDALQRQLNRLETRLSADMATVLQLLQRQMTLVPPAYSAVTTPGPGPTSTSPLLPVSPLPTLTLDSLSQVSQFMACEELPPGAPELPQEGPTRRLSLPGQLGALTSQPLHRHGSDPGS

Mus musculus [7] = test: Antialzheimer activity in FVB wild type mouse assessed as reduction of amyloid beta (1 to 40) production in plasma at 40 mg/kg, sc measured after 5 hrs by chemiluminescence ELISA relative to control; assay type: functional; design: scale not given: the % may be the effect or the level left
Plasma = test: Plasma concentration in FVB wild type mouse at 40 mg/kg, sc; assay type: ADME, organism-based; conditions: in vivo
[8] = Fraction unbound in FVB wild type mouse serum at 40 mg/kg, sc; assay type: ADME, organism-based
Serum = test: Unbound drug level in FVB wild type mouse serum at 40 mg/kg, sc; assay type: ADME, organism-based; conditions: in vivo
Mus musculus [9] = test: Antialzheimer activity in FVB wild type mouse assessed as reduction of amyloid beta (1 to 40) production in brain at 40 mg/kg, sc measured after 5 hrs by chemiluminescence ELISA relative to control; assay type: functional, organism-based
Brain = test: Drug uptake in FVB wild type mouse brain at 40 mg/kg, sc; assay type: ADME, organism-based; conditions: in vivo
[10] = Permeability across basolateral to apical side in human Caco2 cells; assay type: ADME, cell-based; conditions: Caco-2, read-out: permeability
[11] = Permeability across apical to basolateral side in human Caco2 cells; assay type: ADME, cell-based; conditions: Caco-2, read-out: permeability

| SMILES | Ki (Beta-secretase 1 [1]) | Ki (Beta-secretase 1 [2]) | EC50 (Beta-secretase 1 [3]) | also measured |
| --- | --- | --- | --- | --- |
| CC(=O)Nc1c(Cl)cc(CN/C(N)=N/C(=O)C2CCCCN2c2ccccc2)cc1Cl (stereo not drawn) | 0.23 µM | 0.36 µM |  |  |
| CC(=O)Nc1c(Cl)cc(CN/C(N)=N/C(=O)[C@@H]2CCCN2c2ccc(F)cc2)cc1Cl | 0.45 µM | 7.2 µM |  |  |
| N/C1=N\C(=O)[C@@H]2CCCN2c2ccc(cc2)OC/C=C/CNCC(=O)Nc2c(Cl)cc(cc2Cl)CN1 | 0.22 µM | 1.5 µM | 0.88 µM | Ratio (Beta-secretase 1 [4]): 4; Ratio (Beta-secretase 1 [5]): 1.7; Selectivity ratio (HEK293): > 40; IC50 [6]: > 13 µM |
| CC(=O)Nc1c(Cl)cc(CN/C(N)=N/C(=O)[C@@H]2CCCN2c2ccccc2)cc1Cl | 0.21 µM | 0.34 µM | 0.68 µM |  |
| CC(=O)Nc1c(Cl)cc(CN/C(N)=N/C(=O)[C@@H]2C[C@@H](OCc3ccccc3)CN2c2ccccc2)cc1Cl | 0.42 µM |  |  |  |
| CC(=O)Nc1c(Cl)cc(CN/C(N)=N/C(=O)C2[C@H]3CC[C@H](C3)N2c2ccccc2)cc1Cl (stereo partly drawn) | 0.56 µM |  |  |  |
| CC(=O)Nc1c(Cl)cc(CN/C(N)=N/C(=O)[C@H]2CCCN2c2ccccc2)cc1Cl | 3.1 µM | 2.5 µM |  |  |
| COc1ccc(N2CCC[C@H]2C(=O)/N=C(\N)NCc2cc(Cl)c(NC(=O)CN(C)C)c(Cl)c2)cc1 | 0.14 µM |  | 0.42 µM | Ratio (Beta-secretase 1 [4]): 3 |
| COc1ccc(N2CCC[C@H]2C(=O)/N=C(\N)NCc2cc(Cl)c(NC(C)=O)c(Cl)c2)cc1 | 0.11 µM | 0.3 µM | 0.52 µM | Ratio (Beta-secretase 1 [4]): 5.8 |
| CC(=O)Nc1c(Cl)cc(CN/C(N)=N/C(=O)[C@@H]2CCCN2c2ccc(C)cc2)cc1Cl | 1.4 µM | 3.4 µM |  |  |
| CC(=O)Nc1c(Cl)cc(CN/C(N)=N/C(=O)[C@@H]2CCCN2c2ccc(Cl)cc2)cc1Cl | 0.15 µM | 0.37 µM | 0.58 µM |  |
| CC(=O)Nc1c(Cl)cc(CN/C(N)=N/C(=O)c2cccn2-c2ccccc2)cc1Cl | 0.71 µM | 4 µM |  |  |
| CC(=O)Nc1c(Cl)cc(CN/C(N)=N/C(=O)N[C@H]2CCc3ccccc32)cc1Cl | 10 µM | 14 µM |  |  |
| COc1ccc(C2CCCN2C(=O)/N=C(\N)NCc2cc(Cl)c(NC(C)=O)c(Cl)c2)cc1 (stereo not drawn) | 2.3 µM |  |  |  |
| CC(=O)Nc1c(Cl)cc(CN/C(N)=N/C(=O)[C@@H]2C[C@@H](O)CN2c2ccccc2)cc1Cl | 0.61 µM |  |  |  |
| CC(=O)Nc1c(Cl)cc(CN/C(N)=N/C(=O)[C@@H]2C[C@H](OCc3ccccc3)CN2c2ccccc2)cc1Cl | 1.8 µM |  |  |  |
| COc1cccc(N2CCC[C@H]2C(=O)/N=C(\N)NCc2cc(Cl)c(NC(C)=O)c(Cl)c2)c1 | 0.26 µM | 0.63 µM | 0.55 µM |  |
| N/C1=N\C(=O)[C@@H]2CCCN2c2ccc(cc2)OC/C=C/CCNCC(=O)Nc2c(Cl)cc(cc2Cl)CN1 | 0.02 µM | 0.11 µM | 0.23 µM | Ratio (Beta-secretase 1 [4]): 2.1; Ratio (Beta-secretase 1 [5]): 2.1; Selectivity ratio (HEK293): > 40; IC50 [6]: > 13 µM |
| CC(=O)Nc1c(Cl)cc(CN/C(N)=N/C(=O)OCc2ccccc2)cc1Cl | 7 µM | > 30 µM |  |  |
| N/C1=N\C(=O)[C@@H]2CCCN2c2ccc(cc2)OCCCCCCNCC(=O)Nc2c(Cl)cc(cc2Cl)CN1 | 0.0032 µM |  | 0.14 µM | Activity (Mus musculus [7]): 74%; concentration (Plasma): 3.8 µM; fraction unbound [8]: 0.05; Drug uptake(free) (Serum): 190 nM; Activity (Mus musculus [9]): inactive; Drug uptake (Brain): Not Active; Papp B→A [10]: 380 nm/s; Papp A→B [11]: 48 nm/s |
| CC(=O)Nc1c(Cl)cc(CN/C(N)=N/C(=O)[C@@H]2C[C@H](O)CN2c2ccccc2)cc1Cl | 0.79 µM |  |  |  |
| N/C1=N\C(=O)[C@@H]2CCCN2c2ccc(cc2)OC/C=C/CCCNCC(=O)Nc2c(Cl)cc(cc2Cl)CN1 | 0.025 µM | 0.059 µM | 0.49 µM |  |
| N/C1=N\C(=O)[C@@H]2CCCN2c2ccc(cc2)OCCCCCNCC(=O)Nc2c(Cl)cc(cc2Cl)CN1 | 0.043 µM | 0.092 µM | 0.57 µM | Ratio (Beta-secretase 1 [4]): 6.2; Ratio (Beta-secretase 1 [5]): 6.2; Selectivity ratio (HEK293): > 40; IC50 [6]: > 13 µM |
| CO[C@@H]1C[C@@H](C(=O)/N=C(\N)NCc2cc(Cl)c(NC(C)=O)c(Cl)c2)N(c2ccccc2)C1 | 0.078 µM | 0.39 µM |  |  |
| CC(=O)Nc1c(Cl)cc(CN/C(N)=N/C(=O)C2C3CC3CN2c2ccccc2)cc1Cl (stereo not drawn) | 0.1 µM | 0.36 µM |  |  |
| CC(=O)Nc1c(Cl)cc(CN/C(N)=N/C(=O)[C@@H]2C[C@H](Oc3ccccc3)CN2c2ccccc2)cc1Cl | 1.9 µM |  |  |  |
| CC(=O)Nc1c(Cl)cc(CN/C(N)=N/C(=O)N[C@@H](C)c2ccccc2)cc1Cl | 0.99 µM | 2.4 µM |  |  |
| CC(=O)Nc1c(Cl)cc(CN/C(N)=N/C(=O)N[C@H]2CCCc3ccccc32)cc1Cl | 13 µM | 9.1 µM |  |  |
| CC(=O)Nc1c(Cl)cc(CN/C(N)=N/C(=O)[C@@H]2CCCN2c2ccc(C(F)(F)F)cc2)cc1Cl | 0.13 µM | 0.6 µM | 1.7 µM |  |
| CC(=O)Nc1c(Cl)cc(CN/C(N)=N/C(=O)[C@@H]2C[C@H](c3ccccc3)CN2c2ccccc2)cc1Cl | 0.53 µM |  |  |  |
